Key:
[1] = molecular target: Proline hydroxylase; assay: Enzyme test: hydroxylation of underhydroxylated collagen, proline hydroxylase inhibition; assay type: biochemical; conditions: 50% inhibition of the enzyme reaction; Iron(II) ions, α-ketoglutarate and ascorbate
Excerpt: (§1) The inhibitory action of the substances according to the invention, for example on collagen biosynthesis, can be tested in an enzyme test in analogy to the method of B. Peterkovsky and R. DiBlasio, Anal. Biochem. 66, 279-286 (1975). This entails enzymatic hydroxylation of underhydroxylated collagen in the presence of IronlII) ions, α-ketoglutarate and ascorbate. The enzymes which can be used are prolyl 4-hydroxylase, prolyl 3-hydroxylase or lysl hydroxylase in a cell-free test medium. The inhibitory action can also be measured in cell or tissue culture and is reported as 50% inhibition of the enzyme reaction (IC50).

[2] = molecular target: Lysine hydroxylase; assay: Enzyme test: hydroxylation of underhydroxylated collagen, lysine hydroxylase inhibition; assay type: biochemical; conditions: 50% inhibition of the enzyme reaction; Iron(II) ions, α-ketoglutarate and ascorbate
Excerpt: as §1

| SMILES | IC50 [1] | IC50 [2] |
| --- | --- | --- |
| CC(=O)N[C@@H](CCCNC(=O)c1cc(O)c(O)c(O)c1)C(=O)N1CCC[C@H]1C(=O)NCC(=O)O [Ac--Orn(3,4,5-Trihydroxybenzoyl)-Pro--Gly--OH] | 29 µM | 8 µM |
| CC(=O)N[C@@H](CCCNC(=O)c1ccc(O)c(O)c1)C(=O)N1CCC[C@H]1C(=O)NCC(=O)O [Ac--Orn(3,4-Dihydroxybenzoyl)-Pro--Gly--OH] | 72 µM | 7 µM |
| CC(=O)N[C@@H](CCCNC(=O)Cc1ccc(O)c(O)c1)C(=O)N1CCC[C@H]1C(=O)NCC(=O)O [Ac--Orn(3,4-Dihydroxyphenylacetyl)-Pro--Gly--OH] | 140 µM | 37 µM |
| CC(=O)N1CCC[C@H]1C(=O)N[C@@H](CCCNC(=O)c1cc(O)c(O)c(O)c1)C(=O)NCC(=O)O [Ac--Pro--Orn(3,4,5-Trihydroxybenzoyl)-Gly--OH] | 17 µM | 26 µM |
| CC(=O)N1CCC[C@H]1C(=O)N[C@@H](CCCNC(=O)Cc1ccc(O)c(O)c1)C(=O)NCC(=O)O [Ac--Pro--Orn(3,4-Dihydroxyphenylacetyl)-Gly--OH] | 155 µM | 70 µM |
| CC(=O)N[C@@H](CCCNC(=O)c1cccc(O)c1O)C(=O)N1CCC[C@H]1C(=O)NCC(=O)O [Ac-Orn(2,3-dihydroxybenzoyl)-Pro-Gly-OH] | 38 µM | 7 µM |
| CC(=O)N1CCC[C@H]1C(=O)N[C@@H](CCCNC(=O)c1ccc(O)c(O)c1)C(=O)NCC(=O)O [Ac-Pro-Orn(3,4-dihydroxybenzoyl)-Bly-OH] | 50 µM | 39 µM |

From US4797471A, “Peptide derivatives having an inhibitory action on hydroxylating enzymes, a process for their preparation, agents containing them, and their use” (Hoechst Aktiengesellschaft, priority 1985, dated 1989)
